Measured values from patent US20160331662A1, “Compositions that Inhibit and Prevent the Formation of Dental Caries and Methods of Using the Same” (priority 2014, published 2016).

How the values were obtained:
[1] = system: adhesion of SspB of S. gordonii to iSRCR123; assay: Adherence/inhibition SPR: SspB fragments on immobilized iSRCR123; format: binding; conditions: 0.005 mM peptide; 2 μM protein
Protocol: (§1) Carbohydrates Galβ1-3-GalNac and Mannose (identified from glycan profile analysis) at different concentrations (0.010, 0.050, 0.1, 0.5 and 1 mM) were incubated with 2 μM of each FL, A3VP1 and C123 of AgI/II and SspB and the interaction with immobilized iSRCR1 and iSRCR123 with running buffer containing 20 mM HEPES, 150 mM NaCl and 2.5 mM CaCl2, pH 7.4 at 25° C. and with flow rate of 20 μl/min was analyzed. Direct adherence of these carbohydrates alone served as the control and all calculations were carried out using the BIAevaluation software. Using the same protocol above at varying concentrations the effect of SRCRP2 peptide on the adherence inhibition was assessed.

[2] = system: adhesion of AgI/II of S. mutans to iSRCR1; assay: Adherence/inhibition SPR: AgI/II fragments on immobilized iSRCR1; format: binding; conditions: 0.005 mM peptide; 2 μM protein
Protocol: as §1

[3] = system: adhesion of AgI/II of S. mutans to iSRCR123; assay: Adherence/inhibition SPR: AgI/II fragments on immobilized iSRCR123; format: binding; conditions: 0.005 mM peptide; 2 μM protein
Protocol: as §1

[4] = molecular target: T1, iSRCR1 (Homo sapiens, UniProt Q9UGM3); assay: SPR binding of analytes to immobilized iSRCR1 (CM5 chip, 1:1 Langmuir); conditions: substance alone over CM5 chip
T1 construct: strongly proves that a single SRCR domain contains the adherence sites for AgI/II and SspB; made in house; host or cells: Drosophila expression system
T1 sequence (Q9UGM3 102-202 limits assumed): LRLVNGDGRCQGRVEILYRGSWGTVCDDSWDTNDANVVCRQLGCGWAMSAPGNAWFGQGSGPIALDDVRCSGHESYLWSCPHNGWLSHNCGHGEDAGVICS
Protocol: (§2) Real time binding analyses of the SRCR domains with AgI/II fragments were carried out using the BIAcore 2000 system. […] Self association of iSRCR1 or iSRCR123 (at 2 μM) were also determined in a similar manner as described above. Finally to determine the effect of calcium SPR analysis was carried out by dialyzing the analytes and ligands in binding buffer devoid of CaCl2.
(§3) In addition, the SRCR holding two distinct surfaces compounded the elucidation of individual kinetics, and presently there are no modeling protocols available to determine the individual affinities for such a system, therefore for simplicity we have utilized a single site 1:1 Langmuir model. All experiments were carried out in triplicates and the kinetics of the association (KA) and dissociation (KD) rate constants were deduced using the 1:1 Langmuir Kinetic model on the BIA-Evaluation software. The concentration (C in μM) of analyte (FL^AgI/II or FL^SspB at 2 μM) that adhered to the immobilized ligand (iSRCR1, iSRCR123) within the flow cell was calculated using the formula C=(RU/MW)×(1/V), where RU is resonance unit (1 RU=1 pg of bound protein), MW is molecular weight of analyte and V is volume of flow cell (1.2×10^−10 L).

[5] = molecular target: T2, iSRCR123 (Homo sapiens, UniProt Q9UGM3); assay: SPR binding of analytes to immobilized iSRCR123 (CM5 chip, 1:1 Langmuir); conditions: substance alone over CM5 chip
T2 construct: multiple SRCR domains have better adherence capability compared to that of a single SRCR domain; made in house; host or cells: Drosophila expression system
T2 sequence (Q9UGM3 102-463 limits assumed): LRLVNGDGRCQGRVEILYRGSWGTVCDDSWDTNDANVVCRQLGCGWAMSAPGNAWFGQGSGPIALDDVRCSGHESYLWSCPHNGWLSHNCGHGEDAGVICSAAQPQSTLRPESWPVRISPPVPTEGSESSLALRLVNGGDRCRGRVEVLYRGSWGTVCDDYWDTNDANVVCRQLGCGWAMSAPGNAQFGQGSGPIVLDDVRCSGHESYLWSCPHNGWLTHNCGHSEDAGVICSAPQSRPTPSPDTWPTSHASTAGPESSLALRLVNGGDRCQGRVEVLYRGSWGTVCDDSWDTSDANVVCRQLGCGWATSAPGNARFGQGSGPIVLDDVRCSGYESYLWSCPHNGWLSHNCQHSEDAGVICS
Protocol: as §2, §3

[6] = molecular target: T3, AgI/II of S. mutans (Streptococcus mutans serotype c, UniProt P23504); assay: ELISA binding of fluorescent tagged SRCRP2 peptide; conditions: FAM-labelled peptide
T3 construct: Recombinant full length (FL) constructs of surface proteins (homologs of AgI/II) AgI/II, SspB, Pas; made in house
T3 sequence (P23504 39-1562): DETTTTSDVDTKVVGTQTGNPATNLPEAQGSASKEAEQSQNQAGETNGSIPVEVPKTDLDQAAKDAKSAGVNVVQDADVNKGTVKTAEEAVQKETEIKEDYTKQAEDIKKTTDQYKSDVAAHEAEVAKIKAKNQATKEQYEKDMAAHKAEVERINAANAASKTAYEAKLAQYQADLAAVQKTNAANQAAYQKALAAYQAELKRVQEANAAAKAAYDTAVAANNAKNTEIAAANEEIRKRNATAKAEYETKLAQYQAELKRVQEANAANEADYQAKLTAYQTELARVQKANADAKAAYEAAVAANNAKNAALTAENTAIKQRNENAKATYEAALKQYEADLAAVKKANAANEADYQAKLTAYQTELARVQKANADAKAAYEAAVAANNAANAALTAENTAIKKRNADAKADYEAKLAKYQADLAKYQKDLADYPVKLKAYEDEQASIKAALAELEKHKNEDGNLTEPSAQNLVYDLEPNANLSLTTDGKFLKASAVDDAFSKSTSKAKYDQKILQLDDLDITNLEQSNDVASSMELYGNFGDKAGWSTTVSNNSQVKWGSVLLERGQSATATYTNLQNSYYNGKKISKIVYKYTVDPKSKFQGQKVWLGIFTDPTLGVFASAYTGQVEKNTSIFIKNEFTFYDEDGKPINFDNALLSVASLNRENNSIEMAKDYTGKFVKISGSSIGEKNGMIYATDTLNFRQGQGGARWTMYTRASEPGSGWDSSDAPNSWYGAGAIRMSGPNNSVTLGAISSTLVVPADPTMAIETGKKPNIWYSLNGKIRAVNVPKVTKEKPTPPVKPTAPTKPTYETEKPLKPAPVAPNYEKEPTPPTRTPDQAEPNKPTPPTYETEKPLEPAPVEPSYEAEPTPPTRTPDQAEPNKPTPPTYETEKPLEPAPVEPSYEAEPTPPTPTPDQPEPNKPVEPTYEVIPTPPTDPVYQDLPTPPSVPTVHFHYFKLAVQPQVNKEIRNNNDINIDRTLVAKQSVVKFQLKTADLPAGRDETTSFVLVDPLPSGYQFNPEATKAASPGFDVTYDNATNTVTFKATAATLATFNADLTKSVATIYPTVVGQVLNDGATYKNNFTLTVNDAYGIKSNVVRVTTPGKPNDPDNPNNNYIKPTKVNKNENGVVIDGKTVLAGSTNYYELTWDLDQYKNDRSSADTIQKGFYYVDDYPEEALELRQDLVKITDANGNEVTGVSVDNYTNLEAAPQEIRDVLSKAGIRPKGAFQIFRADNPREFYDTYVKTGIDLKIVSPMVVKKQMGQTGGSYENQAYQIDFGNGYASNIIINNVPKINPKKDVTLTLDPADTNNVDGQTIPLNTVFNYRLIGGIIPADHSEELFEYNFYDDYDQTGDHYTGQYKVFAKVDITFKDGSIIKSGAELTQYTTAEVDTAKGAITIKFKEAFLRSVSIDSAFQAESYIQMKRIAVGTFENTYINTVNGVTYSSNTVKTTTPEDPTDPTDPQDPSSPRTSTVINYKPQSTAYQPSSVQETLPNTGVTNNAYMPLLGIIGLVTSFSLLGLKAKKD

[7] = molecular target: T4, adhesion of SspB of S. gordonii to iSRCR1 (Streptococcus gordonii, UniProt A8AUS1); format: binding; conditions: 0.005 mM peptide; 2 μM protein
T4 construct: made in house; host or cells: pET23d vector
Protocol: as §1

[8] = system: S. mutans UA159; assay: Aggregation assay (OD700 over 60 min); format: cell-based
Protocol: (§4) Aggregation assays were performed as described earlier with slight modifications. Briefly, S. mutans UA159 and S. gordonii DL1 cells were grown in TSY broth media overnight at 37° C. in the presence of 5% CO2. The bacteria were centrifuged at 5000×g and washed with a buffer containing 20 mM HEPES pH 7.4, 150 mM NaCl and re-suspended to an approximate OD700 of 1. The bacterial suspension (900 μl) was mixed with 100 μl of SAG or iSRCR1 (10 μM) or iSRCR123 ([…]) or commercially synthesized (Think Peptides, Inc) SRCRP2 peptide with fluorescein amidite (FAM) at the carboxyl end ([…]-[FAM]) (SEQ ID NO:9, at both 400 μg/ml and 1 mg/ml) in the presence of 6 mM CaCl2 and aggregation was measured by recording OD700over 60 min at 5 min intervals, where the buffer alone was used as control. All experiments were carried out at least five times, and the results were analyzed with One-way ANOVA. Post-hoc testing where *, P<0.05 was considered statistically significant and results were presented as the percentage of cells aggregated.

[9] = system: S. gordonii DL1; assay: Aggregation assay (OD700 over 60 min); format: cell-based
Protocol: as §4

[10] = molecular target: SspB of S. gordonii (Streptococcus gordonii, UniProt A8AUS1); conditions: FAM-labelled peptide
Chain of SspB of S. gordonii (A8AUS1 39-1433): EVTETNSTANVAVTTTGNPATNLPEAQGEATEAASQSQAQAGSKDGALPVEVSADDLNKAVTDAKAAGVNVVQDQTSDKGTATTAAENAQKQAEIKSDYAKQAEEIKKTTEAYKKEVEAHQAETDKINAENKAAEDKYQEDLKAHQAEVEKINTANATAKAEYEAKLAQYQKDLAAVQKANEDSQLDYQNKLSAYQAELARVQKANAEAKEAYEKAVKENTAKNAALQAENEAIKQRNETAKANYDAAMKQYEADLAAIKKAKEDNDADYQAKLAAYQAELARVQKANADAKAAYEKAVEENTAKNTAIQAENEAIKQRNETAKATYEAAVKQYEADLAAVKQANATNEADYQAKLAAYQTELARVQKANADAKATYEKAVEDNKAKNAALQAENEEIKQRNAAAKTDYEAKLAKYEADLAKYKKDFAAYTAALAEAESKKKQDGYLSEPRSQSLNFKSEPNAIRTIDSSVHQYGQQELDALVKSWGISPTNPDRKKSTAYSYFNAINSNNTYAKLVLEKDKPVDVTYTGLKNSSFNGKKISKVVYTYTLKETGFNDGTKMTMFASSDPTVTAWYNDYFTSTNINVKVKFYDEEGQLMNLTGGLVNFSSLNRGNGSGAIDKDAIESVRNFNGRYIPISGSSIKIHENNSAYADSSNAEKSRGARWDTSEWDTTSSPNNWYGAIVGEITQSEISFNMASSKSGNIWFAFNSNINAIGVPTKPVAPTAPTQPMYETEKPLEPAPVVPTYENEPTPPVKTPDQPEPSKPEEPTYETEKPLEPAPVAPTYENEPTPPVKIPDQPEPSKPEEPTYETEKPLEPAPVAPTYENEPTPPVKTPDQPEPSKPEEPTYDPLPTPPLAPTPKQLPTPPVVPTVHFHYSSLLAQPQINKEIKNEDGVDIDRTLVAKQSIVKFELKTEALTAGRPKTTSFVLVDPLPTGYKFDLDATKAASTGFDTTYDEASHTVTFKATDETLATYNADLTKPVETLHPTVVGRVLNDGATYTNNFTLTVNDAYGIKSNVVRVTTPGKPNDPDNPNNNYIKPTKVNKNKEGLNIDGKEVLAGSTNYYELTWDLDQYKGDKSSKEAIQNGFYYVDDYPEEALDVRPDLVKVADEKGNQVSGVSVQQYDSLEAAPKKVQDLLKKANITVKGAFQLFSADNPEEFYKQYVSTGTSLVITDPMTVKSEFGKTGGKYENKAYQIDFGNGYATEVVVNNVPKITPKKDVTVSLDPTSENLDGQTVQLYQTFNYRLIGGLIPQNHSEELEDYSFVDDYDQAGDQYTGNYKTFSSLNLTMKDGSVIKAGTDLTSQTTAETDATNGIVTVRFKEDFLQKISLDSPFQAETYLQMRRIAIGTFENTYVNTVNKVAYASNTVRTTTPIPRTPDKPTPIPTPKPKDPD

[11] = system: S. mutans UA159; assay: Flow cytometric analysis of iSRCR adherence to bacteria; format: cell-based; conditions: 10 μM
Protocol: (§5) S. mutans UA159 and S. gordonii DL1 cells were grown overnight in TSY broth media at 37° C. and washed thoroughly with FACS buffer (20 mM HEPES pH 7.4, 150 mM NaCl and 5% non-fat dry milk) to reduce non-specific binding. Subsequently, 10 μM of iSRCR1 or iSRCR123 were added to 100 μl of cells (1×10^7 cells/ml) in binding buffer (FACS buffer+2.5 mM CaCl2) and incubated for 60 min at 37° C. The cells were later washed thoroughly with binding buffer to remove unbound iSRCRs. Subsequently, Anti-His tag Alexafluor 488 antibody (1:50 dilution) (EMD Millipore, Inc) that adheres to the His tag present on SRCRs was added to the cells and incubated for 30 min, washed three times and resuspended in 200 μl of binding buffer. Samples without iSRCRs served as control. Samples were then assayed using the FACScan machine (BD Biosciences) at the Analytical and Preparative Cytometry Facility (APCF) at UAB, and data obtained was analyzed using FlowJo 7.2.4 software.

[12] = system: S. gordonii DL1; assay: as above; format: cell-based; conditions: 10 μM, compared with S. mutans
Protocol: as §5

[13] = Differential scanning calorimetry, thermostability of SRCRs with calcium; format: physicochemical; conditions: no added CaCl2
Protocol: The thermostability of SRCRs in the presence of calcium ions was analyzed using Microcal MC-II differential scanning calorimeter (GE HealthCare, USA) as described earlier. Briefly, iSRCR1 or iSRCR123 at concentration of 1 mg/ml was mixed and incubated with different concentration of CaCl2 ranging from (0-100 mM) to final volume of 400 μl of buffer containing 20 mM HEPES, 150 mM NaCl), and buffer without SRCRs served as control. Data were recorded with calorimetric scanning rates that ranged from 30° C./h to 90° C./hat 30 psi pressure. The data collected was analyzed for the unfolding temperature (Tt), and the calorimetric (ΔHcal) and van't Hoff (ΔHv) unfolding enthalpies using the Origin software package (MicroCal).

[14] = system: S. mutans UA159; assay: Confocal microscopy of iSRCR adherence to bacteria; format: cell-based; conditions: 10 μM
Protocol: S. mutans UA159 and S. gordonii DL1 were grown overnight in TSY (30 g/L of Trypticase soy broth and 0.5 g/L yeast extract, pH 7.2) media on an eight-well Lab Tek Chamber slide system (Sigma). The cells were fixed with 3% paraformaldehyde, washed with binding buffer (20 mM HEPES pH 7.4, 150 mM NaCl and 2.5 mM CaCl2), and thereafter iSRCR1 or iSRCR123 (10 μM) were added to the cells and incubated for 60 min. The unbound SRCRs were removed by repeated washing using the binding buffer. Subsequently, Alexa fluor 488 conjugated Anti-His-tag antibody (EMD Millipore, Inc) (1:50 dilution) that can bind to the His Tag on SRCRs was added. After 60 min incubation the unbound antibody was washed away thoroughly using binding buffer, and the chamber walls were gently removed. Cover slips were then mounted with 15 μl of fluoromount-G with DAPI (Southern Biotech Inc) to stain bacterial nuclei and were sealed until ready to be imaged. The experiment without SRCRs served as control. All slides were imaged using Leica SP1 UV Confocal Laser Scanning Microscope and Zeiss LSM 710 Confocal Laser Scanning Microscope at the UAB-High resolution imaging facility (UAB-HRIF).

[15] = peptide at lower concentration (400 μg/ml)

## QGRVEVLYRGSWGTVC [SRCRP2 peptide, reference compound]
[1]
  change in adherence of A3VP1^SspB to iSRCR123: 3%
  change in adherence of C123^SspB to iSRCR123: 5%
  improvement of adherence of FL^SspB to iSRCR123: 91%
[2]
  change in adherence of C123^AgI/II to iSRCR1: 2.3%
  improvement of adherence of A3VP1^AgI/II to iSRCR1: 13%
  improvement of adherence of FL^AgI/II to iSRCR1: 8%
[3]
  change in adherence of C123^AgI/II to iSRCR123: 7%
  improvement of adherence of A3VP1^AgI/II to iSRCR123: 16%
  improvement of adherence of FL^AgI/II to iSRCR123: 8%
[4]
  direct binding to immobilized iSRCR1 (in words): did not show any binding
[5]
  direct binding to immobilized iSRCR123 (in words): did not show any binding
[6]
  adherence to AgI/II and its subfragments by ELISA (in words): adheres well
[7]
  change in adherence of A3VP1^SspB to iSRCR1: 3%
  change in adherence of C123^SspB to iSRCR1: 4%
  improvement of adherence of FL^SspB to iSRCR1: 97%
[8]; peptide 1 mg/ml
  percentage of cells aggregated: 18%
[8]; [15]
  percentage of cells aggregated: 12%
[9]; peptide 1 mg/ml
  percentage of cells aggregated: 12%
[9]; [15]
  percentage of cells aggregated: 11%
[10]
  adherence to SspB and its subfragments by ELISA (in words): adheres well

## iSRCR1: recombinant single SRCR domain construct of Gp340 (15 kDa), Drosophila expression system
[11]
  increase in fluorescence intensity compared to the control: 10 fold
[12]
  adherence by FACS (in words): lower adherence
[13]
  Tm: 56.5 °C
[14]
  binding to cells by confocal microscopy (in words): binding
[8]; iSRCR 10 μM or SAG, 6 mM CaCl2
  percentage of cells aggregated: 17%
[9]; iSRCR 10 μM or SAG, 6 mM CaCl2
  percentage of cells aggregated: 13%
